Literature values in patent US20210251559A1, “METHODS FOR DIAGNOSING, MONITORING AND TREATING NEUROLOGICAL DISEASES AND DISORDERS” (CuraSen Therapeutics, Inc., priority 2018, published 2021).

Test system: Ts65Dn mice
Conditions: increasing brain NE levels

N[C@H](C(=O)O)[C@H](O)c1ccc(O)c(O)c1 [L-DOPS, L-threo-3,4-dihydroxyphenylserine]
contextual learning: restored contextual learning
